From paper PMC8538004, “Identification of a Novel Neuropeptide S Receptor Antagonist Scaffold Based on the SHA-68 Core” (Pharmaceuticals, 2021)

How the values were obtained:
human NPSR-107I = target: T1, human NPSR-107I (Homo sapiens, UniProt Q6W5P4, N107I); test: Ca+2 mobilization assay (apparent Ke against NPS); format: cell-based; details: for Kb: Calcium Mobilization, CHO-Gα16-hNPSR-107I cells, shift of NPS EC50; for NPSR antagonist activity in words: calcium mobilization, SAR discussion; for Loss of antagonist activity compared to SHA: compared with SHA-66 (Ke = 10 nM)
T1 construct: expressed in transfected cells
T1 sequence (Q6W5P4 1-371 N107I): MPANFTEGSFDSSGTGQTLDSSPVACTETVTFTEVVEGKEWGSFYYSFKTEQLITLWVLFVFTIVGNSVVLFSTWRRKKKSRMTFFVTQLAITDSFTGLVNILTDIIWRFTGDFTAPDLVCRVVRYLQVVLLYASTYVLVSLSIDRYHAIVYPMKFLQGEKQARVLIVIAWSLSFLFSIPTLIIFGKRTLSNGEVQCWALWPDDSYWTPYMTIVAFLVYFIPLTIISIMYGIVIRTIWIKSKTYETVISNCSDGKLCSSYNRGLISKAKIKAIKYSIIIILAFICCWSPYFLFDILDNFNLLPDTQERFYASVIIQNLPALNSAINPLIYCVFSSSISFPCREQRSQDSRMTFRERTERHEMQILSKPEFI
Protocol: A stable cell line overexpressing the human NPSR-107I was created in CHO-Gαq16 cells (RD-HGA16, Molecular Devices), as previously described. Briefly, CHO-Gαq16 cells were transfected with pcDNA 3.1 human NPSR-107I using Lipofectamine reagent. Transfected cells were plated into 10 cm^2 dishes 24 h post-transfection and were selected using Geneticin. After 2 weeks, individual clones were selected, grown to confluence, and screened in a functional 96-well calcium mobilization assay that measured the response to NPS (100 nM final). […] A final working clone was chosen for all subsequent studies based on NPS potency and the calcium mobilization signal window. CHO-Gα16-hNPSR-107I cells were cultured in Ham’s F12 media supplemented with 10% FBS, 100 units/mL penicillin, 100 μg/mL streptomycin, 200 μg/mL hygromycin, and 400 μg/mL geneticin. Media were purchased from HyClone (GE Life Sciences); FBS, penicillin/streptomycin, hygromycin, and geneticin were purchased from Invitrogen (Thermo Scientific). The day before the assay, cells were plated into 96-well black-walled assay plates at 25,000–40,000 cells/well in growth medium without selection antibiotics. Cells were incubated overnight at 37 °C, 5% CO2. The FLIPR Calcium 5 assay kit (Molecular Devices) was used according to the manufacturer’s instructions with minor modifications. Briefly, reconstituted dye was diluted in pre-warmed assay buffer (HBSS, 20 mM HEPES, 2.5 mM probenecid, pH 7.4 at 37 °C). Growth medium was removed, and the cells were gently washed with assay buffer. Calcium 5 dye was added to the cells and the plate was incubated for 45 min at 37 °C, 5% CO2. A single concentration of test compound and 10-point concentration–response curves of NPS (ranging from 100 nM to 1 pM) were prepared at 10× the desired final concentration. Cells were pretreated with the test compound or vehicle in a final concentration of 0.25% BSA/1% DMSO for 15 min at 37 °C. Assay plates were read with a FlexStation II instrument (excitation at 485 nm, detection at 525 nm, Molecular Devices). Calcium-mediated changes in fluorescence were monitored every 1.5 s over a 90 s time period. NPS was added during the read and the maximum kinetic […] (SoftMax [Max-Min], Molecular Devices) in relative fluorescent units (RFU) was measured. Data were fitted to a three-parameter logistic curve to generate EC50 values (GraphPad Prism 6.0). Antagonism was quantified by measuring the ratio of equi-active concentrations of agonist measured in the presence or absence of the antagonist. Apparent Ke values were calculated using the equation Ke = [L]/((EC50^+/EC50^−) − 1), where [L] is the concentration of test compound, EC50^+ is the EC50 of NPS with test compound, and EC50^– is the EC50 of NPS alone. Ke values were considered valid when the EC50^+/EC50^− ratio was at least 4. HBSS and HEPES were purchased from Gibco (Thermo Scientific); probenecid, BSA, and DMSO were purchased from Sigma-Aldrich.

NPSR = system: NPSR; parameters: method as in PMID 24964000, PMID 20615693, PMID 18337476, PMID 24171469, PMID 20510609; details: Figure 1, known NPSR antagonists; cited from earlier work

CC(C)CC1(c2ccccc2)OC(=O)C2=C1CN(C(=O)NCCN1CCCCC1)CC2 (centres unmarked) [Compound 27, 3-(2-Methylpropyl)-1-oxo-3-phenyl-N-[2-(piperidin-1-yl)Ethyl]-1H,3H,4H,5H,6H,7H-furo[3,4-c]pyridine-5-carboxamide]
Kb (human NPSR-107I): 566 nM | NPSR antagonist activity in words (human NPSR-107I): reduction in potency

Cc1c(P(=S)(c2ccccc2)c2ccccc2)n2ccccc2[n+]1C/C=C/c1ccccc1 [D]
IC50 (NPSR): 9.6 nM

CCCCNC(=O)N1CCC2=C(C1)C(CC(C)C)(c1ccccc1)OC2=O (centres unmarked) [Compound 26, N-Butyl-3-(2-methylpropyl)-1-oxo-3-phenyl-1H,3H,4H,5H,6H,7H-furo[3,4-c]pyridine-5-carboxamide]
Kb (human NPSR-107I): 238 nM | NPSR antagonist activity in words (human NPSR-107I): reduction in potency

O=C1OC(c2ccccc2)(c2ccccc2)C2=C1CCN(C(=O)NCc1ccccc1)C2 [Compound 1, N-Benzyl-1-oxo-3,3-diphenyl-1H,3H,4H,5H,6H,7H-furo[3,4-c]pyridine-5-carboxamide]
Kb (human NPSR-107I): 522 nM | Loss of antagonist activity compared to SHA (human NPSR-107I): roughly 50 fold

CCCCNC(=O)N1CC[C@H]2C(=O)OC(c3ccccc3)(c3ccccc3)[C@H]2C1 [Compound 4, (3,7)-N-Butyl-1-oxo-3,3-diphenyl-octahydrofuro[3,4-c]pyridine-5-carboxamide]
NPSR antagonist activity in words (human NPSR-107I): lacked antagonist activity

O=C1OC(c2ccccc2)(c2ccccc2)[C@H]2CN(C(=O)NCc3ccccc3)CC[C@@H]12 [Compound 3, (3,7)-N-Benzyl-1-oxo-3,3-diphenyl-octahydrofuro[3,4-c]pyridine-5-carboxamide]
Kb (human NPSR-107I): 761 nM | NPSR antagonist activity in words (human NPSR-107I): lacked antagonist activity

CCC(C)(CCN1CCOCC1)N(Cc1cc2ccccc2n(C)c1=O)C(=O)C1CCCCC1 (centres unmarked) [A]
IC50 (NPSR): 23 nM

O=C(NCCN1CCCCC1)N1CCN2C(=O)OC(c3ccccc3)(c3ccccc3)[C@H]2C1 [RTI-118]
Ke (NPSR): 36 nM

O=C(NCc1ccccc1)N1CCN2C(=O)OC(c3ccccc3)(c3ccccc3)C2C1 (centres unmarked) [SHA-66]
Ke (NPSR): 10 nM

CC(C)CC1(c2ccccc2OCc2ccccc2)OC(=O)C2=C1CN(C(=O)NCc1ccccc1)CC2 (centres unmarked) [Compound 24, N-Benzyl-3-[2-(benzyloxy)phenyl]-3-(2-methylpropyl)-1-oxo-1H,3H,4H,5H,6H,7H-furo[3,4-c]pyridine-5-carboxamide]
Kb (human NPSR-107I): 572 nM

O=C(c1ccccc1N1Cn2c(ccc2-c2ccccc2)C1=O)N1CCCCC1 [C]
IC50 (NPSR): 10 nM

O=C1OC(c2ccccc2)(c2ccccc2)C2=C1CN(C(=O)NCc1ccccc1)CC2 [Compound 7, N-Benzyl-3-oxo-1,1-diphenyl-1H,3H,4H,5H,6H,7H-furo[3,4-c]pyridine-5-carboxamide]
Kb (human NPSR-107I): 1130 nM | NPSR antagonist activity in words (human NPSR-107I): significant loss of potency

O=C1OC2(C3=C1CCN(C(=O)NCc1ccccc1)C3)c1ccccc1CCc1ccccc12 [Compound 9, N-Benzyl-3-oxo-4,5,6,7-tetrahydro-3H-spiro[furo[3,4-c]pyridine-1,2′-tricyclo[9.4.0.0^{3,8}]pentadecane]-1′(11′),3′,5′,7′,12′,14′-hexaene-6-carboxamide]
Kb (human NPSR-107I): 1660 nM

O=C1OC(Cc2ccccc2)(c2ccccc2)C2=C1CCN(C(=O)NCc1ccccc1)C2 (centres unmarked) [Compound 12, N-3-Dibenzyl-1-oxo-3-phenyl-1H,3H,4H,5H,6H,7H-furo[3,4-c]pyridine-5-carboxamide]
Kb (human NPSR-107I): 606 nM

CC(C)CC1(CC(C)C)OC(=O)C2=C1CN(C(=O)NCc1ccccc1)CC2 [Compound 16, N-Benzyl-3,3-bis(2-methylpropyl)-1-oxo-1H,3H,4H,5H,6H,7H-furo[3,4-c]pyridine-5-carboxamide]
Kb (human NPSR-107I): 734 nM

CC(C)CC1(c2ccc3ccccc3c2)OC(=O)C2=C1CN(C(=O)NCc1ccccc1)CC2 (centres unmarked) [Compound 22, N-Benzyl-3-(2-methylpropyl)-3-(naphthalen-2-yl)-1-oxo-1H,3H,4H,5H,6H,7H-furo[3,4-c]pyridine-5-carboxamide]
Kb (human NPSR-107I): 500 nM

CC(C)CC1(c2cccc(Cl)c2)OC(=O)C2=C1CN(C(=O)NCc1ccccc1)CC2 (centres unmarked) [Compound 25, N-Benzyl-3-(3-chlorophenyl)-3-(2-methylpropyl)-1-oxo-1H,3H,4H,5H,6H,7H-furo[3,4-c]pyridine-5-carboxamide]
Kb (human NPSR-107I): 136 nM

O=C1OC(c2ccccc2)(c2ccccc2)[C@@H]2CN(C(=O)NCc3ccccc3)CC[C@@H]12 [Compound 5, (3,7)-N-Benzyl-1-oxo-3,3-diphenyl-octahydrofuro[3,4-c]pyridine-5-carboxamide]
Kb (human NPSR-107I): 170 nM

CCCCNC(=O)N1CC[C@H]2C(=O)OC(c3ccccc3)(c3ccccc3)[C@@H]2C1 [Compound 6, (3,7)-N-Butyl-1-oxo-3,3-diphenyl-octahydrofuro[3,4-c]pyridine-5-carboxamide]
Kb (human NPSR-107I): 260 nM

CC(C)CC1(c2ccccc2)OC(=O)C2=C1CN(C(=O)NCc1ccccc1)CC2 (centres unmarked) [Compound 14, N-Benzyl-3-(2-methylpropyl)-1-oxo-3-phenyl-1H,3H,4H,5H,6H,7H-furo[3,4-c]pyridine-5-carboxamide]
Kb (human NPSR-107I): 118 nM

COc1ccc2c(c1)C(CC1CCOCC1)(c1ccc(Cl)cc1)n1ccnc1-2 (centres unmarked) [B]
IC50 (NPSR): 82 nM

CC(C)CC1(c2ccccc2)OC(=O)C2=C1CN(C(=S)NCCN1CCCCC1)CC2 (centres unmarked) [Compound 28, 3-(2-Methylpropyl)-1-oxo-3-phenyl-N-[2-(piperidin-1-yl)ethyl]-1H,3H,4H,5H,6H,7H-furo[3,4-c]pyridine-5-carbothioamide]
Kb (human NPSR-107I): 386 nM | NPSR antagonist activity in words (human NPSR-107I): reduction in potency

CCCCNC(=O)N1CCC2=C(C1)C(c1ccccc1)(c1ccccc1)OC2=O [Compound 2, N-Butyl-1-oxo-3,3-diphenyl-1H,3H,4H,5H,6H,7H-furo[3,4-c]pyridine-5-carboxamide]
Kb (human NPSR-107I): 515 nM | Loss of antagonist activity compared to SHA (human NPSR-107I): roughly 50 fold

CC(C)(C)CC1(c2ccccc2)OC(=O)C2=C1CN(C(=O)NCc1ccccc1)CC2 (centres unmarked) [Compound 13, N-Benzyl-3-(2,2-dimethylpropyl)-1-oxo-3-phenyl-1H,3H,4H,5H,6H,7H-furo[3,4-c]pyridine-5-carboxamide]
Kb (human NPSR-107I): 146 nM

CC(C)CC1(c2ccccc2)OC(=O)N2CCN(C(=O)NCc3ccccc3)CC21 (centres unmarked) [Compound 29, N-Benzyl-3-(2-methylpropyl)-1-oxo-3-phenyl-hexahydro-1H-[1,3]oxazolo[3,4-a]piperazine-5-carboxamide]
NPSR antagonist activity in words (human NPSR-107I): completely inactive

CC(C)CC1(c2ccccc2O)OC(=O)C2=C1CN(C(=O)NCc1ccccc1)CC2 (centres unmarked) [Compound 23, N-Benzyl-3-(2-hydroxyphenyl)-3-(2-methylpropyl)-1-oxo-1H,3H,4H,5H,6H,7H-furo[3,4-c]pyridine-5-carboxamide]
Kb (human NPSR-107I): 1500 nM

CCCCC1(c2ccccc2)OC(=O)C2=C1CN(C(=O)NCc1ccccc1)CC2 (centres unmarked) [Compound 11, N-Benzyl-3-butyl-1-oxo-3-phenyl-1H,3H,4H,5H,6H,7H-furo[3,4-c]pyridine-5-carboxamide]
Kb (human NPSR-107I): 165 nM

CC(C)CC1(c2ccccc2)OC(=O)C2=C1CN(C(=O)NCc1ccccc1)CC2 (centres unmarked) [Compound 14a, N-Benzyl-3-(2-methylpropyl)-1-oxo-3-phenyl-1H,3H,4H,5H,6H,7H-furo[3,4-c]pyridine-5-carboxamide]
Kb (human NPSR-107I): 432 nM
